Values quoted from earlier work as cited in PMC7767166, “Imidazole and Imidazolium Antibacterial Drugs Derived from Amino Acids” (Pharmaceuticals, 2020).
Marks after values point to notes of the source that are not given here.

Columns and labels:
B. subtilis = tested on: B. subtilis; parameters: method as in PMID 26777771; settings: cited from earlier work
MRC-5 cells = tested on: MRC-5 cells; parameters: method as in PMID 19407848; settings: cited from earlier work

## Alamethicin
B. subtilis
  B. subtilis MIC: 16 µg/mL
MRC-5 cells
  IC50 (cytotoxicity against MRC-5 cells): 62.5 ^f [42] μg/mL
